Assay results: US20250289785A1, “INDOLE DERIVATIVE, METHOD FOR PREPARING SAME, AND USE THEREOF” (MITOIMMUNE THERAPEUTICS INC., priority 2021, published 2025)

Tested on: H9C2 cells
Assay: Cell protection effect against t-BHP in heart cells (LDH release)
Type: cell-based
Details: H9C2, t-BHP 40 μM, 2 hours
Method: In order to identify the protective effect with regard to heart cells, H9C2 cells were divided into 96-well plates by 1.5×10^4, and cultured for 24 hours. The respective wells were treated with compounds of the examples 3× serial diluted to final concentrations of […], then cultured for 15 to 20 minutes. After treating with t-BHP with a final concentration of 40 μM, culturing was performed for 2 hours. In order to identify the protective effect of each compound, a Cytotoxicity LDH assay kit [Dojindo; CK12] was used to measure the degree of extracellular secretion of LDH. To describe briefly, at the time point 2-hour treatment of the cells with t-BHIP was completed, 100 μL each of the supernatant in which the cells were placed was collected and moved to a new 96-well plate. 100 μL/well of the assay buffer included in the kit (same amount as the sample) was added, followed by wrapping with foil and reacting for 30 minutes at room temperature. Observing the change in color of the sample, 50 μL/well of stop solution was added, then an iD3 spectrometer was used to measure absorbance at 490 nm and calculate the EC50 values. The EC50 of the compounds of the examples is preferably no more than 1.0 μM, and more preferably no more than 0.3 μM.

Row | Compound | EC50
1 | CCOCc1cc(NC2CCCC2)c2[nH]c(-c3ccccc3)c(CCC(=O)OC)c2c1 [Example 38, Methyl 3-(7-(cyclopentylamino)-5-(ethoxymethyl)-2-phenyl-1H-indol-3-yl)propanoate] | ≤ 300 nM
2 | CC(C)(C)OCc1cc(NC2CCCC2)c2[nH]c(-c3ccccc3)cc2c1 [Example 16, 5-(tert-butoxymethyl)-N-cyclopentyl-2-phenyl-1H-indol-7-amine] | ≤ 300 nM
3 | COCc1cc(NCc2ccccc2)c2[nH]c(-c3ccccc3)cc2c1 [Example 8, N-benzyl-5-(methoxymethyl)-2-phenyl-1H-indol-7-amine] | ≤ 300 nM
4 | CCOCc1cc(NC2CCOCC2)c2[nH]c(-c3ccccc3)c(/C=C/C(=O)OC)c2c1 [Example 31, Methyl (E)-3-(5-(ethoxymethyl)-2-phenyl-7-((tetrahydro-2H-pyran-4-yl)amino)-1H-indole-3-yl)acrylate] | ≤ 300 nM
5 | CCCOCc1cc(NC2CCOCC2)c2[nH]c(-c3ccccc3)cc2c1 [Example 47, 2-phenyl-5-(propoxymethyl)-N-(tetrahydro-2H-pyran-4-yl)-1H-indol-7-amine] | ≤ 300 nM
6 | CC(C)OCc1cc(NC2CCOCC2)c2[nH]c(-c3ccccc3)cc2c1 [Example 22, 5-(isopropoxymethyl)-2-phenyl-N-(tetrahydro-2H-pyran-4-yl)-1H-indol-7-amine] | ≤ 300 nM
7 | COCc1cc(NC2CCN(C(C)=O)CC2)c2[nH]c(-c3ccccc3)cc2c1 [Example 6, 1-[4-[[5-(methoxymethyl)-2-phenyl-1H-indol-7-yl]amino]-1-piperidyl]ethanone] | ≤ 300 nM
8 | CCOCc1cc(NC2CCCC2)c2[nH]c(-c3ccccc3)c(-c3ncc[nH]3)c2c1 [Example 45, N-cyclopentyl-5-(ethoxymethyl)-3-(1H-imidazol-2-yl)-2-phenyl-1H-indol-7-amine] | 300 to 1000 nM
9 | c1ccc(-c2cc3cc(COCC4CC4)cc(NC4CCOCC4)c3[nH]2)cc1 [Example 48, 5-((cyclopropylmethoxy)methyl)-2-phenyl-N-(tetrahydro-2H-pyran-4-yl)-1H-indol-7-amine] | ≤ 300 nM
10 | CCOCc1cc(NC2CCOCC2)c2[nH]c(-c3ccccc3)c(C#N)c2c1 [Example 24, 5-(ethoxymethyl)-2-phenyl-7-((tetrahydro-2H-pyran-4-yl)amino)-1H-indole-3-carbonitrile] | 300 to 1000 nM
11 | CCOCc1cc(NC2CCCC2)c2c(c1)c(COC)c(-c1ccccc1)n2C [Example 28, N-cyclopentyl-5-(ethoxymethyl)-3-(methoxymethyl)-1-methyl-2-phenyl-1H-indol-7-amine] | 300 to 1000 nM
12 | CCOCc1cc(NC2CCOCC2)c2[nH]c(-c3ccccc3)c(C(=O)C(F)(F)F)c2c1 [Example 33, 1-(5-(ethoxymethyl)-2-phenyl-7-((tetrahydro-2H-pyran-4-yl)amino)-1H-indol-3-yl)-2,2,2-trifluoro-1-one] | 300 to 1000 nM
13 | CC(C)(C)OCc1cc(N(C2CCCC2)C2CCCC2)c2[nH]c(-c3ccccc3)cc2c1 [Example 17, 5-(tert-butoxymethyl)-N,N-dicyclopentyl-2-phenyl-1H-indol-7-amine] | ≤ 300 nM
14 | COCCCc1cc(NC2CCOCC2)c2[nH]c(-c3ccccc3)cc2c1 [Example 50, 5-(3-methoxypropyl)-2-phenyl-N-(tetrahydro-2H-pyran-4-yl)-1H-indol-7-amine] | ≤ 300 nM
15 | CCOCc1cc(NC2CCCC2)c2[nH]c(-c3ccccc3)c(CCC(=O)O)c2c1 [Example 40, 3-(7-(cyclopentylamino)-5-(ethoxymethyl)-2-phenyl-1H-indol-3-yl)propanoic acid] | > 1000 nM
16 | CC(C)(C)OCc1cc(NC2CCOCC2)c2[nH]c(-c3ccccc3)cc2c1 [Example 15, 5-(tert-butoxymethyl)-2-phenyl-N-tetrahydropyran-4-yl-1H-indol-7-amine] | ≤ 300 nM
17 | COCCNc1cc(COC)cc2cc(-c3ccccc3)[nH]c12 [Example 12, N-(2-methoxyethyl)-5-(methoxymethyl)-2-phenyl-1H-indol-7-amine] | ≤ 300 nM
18 | CCOCc1cc(NC2CCOCC2)c2[nH]c(-c3ccccc3)c(/C=C/C(=O)c3ccccc3)c2c1 [Example 35, (E)-3-(5-(ethoxymethyl)-2-phenyl-7-((tetrahydro-2H-pyran-4-yl)amino)-1H-indol-3-yl)-1-phenylpropan-2-en-1-one] | ≤ 300 nM
19 | COCc1cc(NC2CCC(F)(F)CC2)c2[nH]c(-c3ccccc3)cc2c1 [Example 7, N-(4,4-difluorocyclohexyl)-5-(methoxymethyl)-2-phenyl-1H-indol-7-amine] | ≤ 300 nM

More lines, now with the values ahead:

Row | EC50 | Compound
20 | ≤ 300 nM | COCc1cc(NC2CCS(=O)(=O)CC2)c2[nH]c(-c3ccccc3)cc2c1 [Example 4, N-(1,1-dioxothian-4-yl)-5-(methoxymethyl)-2-phenyl-1H-indol-7-amine]
21 | ≤ 300 nM | CCOCc1cc(NC2CCCC2)c2[nH]c(-c3ccccc3)c(C(O)C(F)(F)F)c2c1 (stereo not drawn) [Example 36, 1-(7-(cyclopentylamino)-5-(ethoxymethyl)-2-phenyl-1H-indol-3-yl)-2,2,2-trifluoroethan-1-ol]
22 | ≤ 300 nM | COCc1cc(NC2CCN(C(=O)OC(C)(C)C)CC2)c2[nH]c(-c3ccccc3)cc2c1 [Example 9, tert-butyl 4-[[5-(methoxymethyl)-2-phenyl-1H-indol-7-yl]amino]-piperidine-1-carboxylate]
23 | ≤ 300 nM | COCc1cc(NC2CCN(S(C)(=O)=O)CC2)c2[nH]c(-c3ccccc3)cc2c1 [Example 5, 5-(methoxymethyl)-N-(1-methylsulfonyl-4-piperidyl)-2-phenyl-1H-indol-7-amine]
24 | ≤ 300 nM | COCc1cc(NC2CCN(C)CC2)c2[nH]c(-c3ccccc3)cc2c1 [Example 11, 5-(methoxymethyl)-N-(1-methyl-4-piperidyl)-2-phenyl-1H-indol-7-amine]
25 | ≤ 300 nM | COCc1cc(NC(C)C)c2[nH]c(-c3ccccc3)cc2c1 [Example 10, N-isopropyl-5-(methoxymethyl)-2-phenyl-1H-indol-7-amine]
26 | ≤ 300 nM | CCOCc1cc(NC2CCCC2)c2[nH]c(-c3ccccc3)c(/C=N/OC)c2c1 [Example 25, (E)-7-(cyclopentylamino)-5-(ethoxymethyl)-2-phenyl-1H-indole-3-carbaldehyde O-methyl oxime]
27 | ≤ 300 nM | CC(C)OCc1cc(NC2CCCC2)c2[nH]c(-c3ccccc3)cc2c1 [Example 21, N-cyclopentyl-5-(isopropoxymethyl)-2-phenyl-1H-indol-7-amine]
28 | ≤ 300 nM | COCc1cc(NC2CCOCC2)c2[nH]cc(-c3ccccc3)c2c1 [Example 18, 5-(methoxymethyl)-3-phenyl-N-tetrahydropyran-4-yl-1H-indol-7-amine]
29 | > 1000 nM | CCOCc1cc(N(C2CCOCC2)C2CCOCC2)c2[nH]c(-c3ccccc3)c(/C=N/OC)c2c1 [Example 26, (E)-7-(bis(tetrahydro-2H-pyran-4-yl)amino)-5-(ethoxymethyl)-2-phenyl-1H-indole-3-carbaldehyde O-methyl Oxime]
30 | ≤ 300 nM | CCOCc1cc(NC2CCCC2)c2[nH]c(-c3ccccc3)c(/C=C/C(=O)OC)c2c1 [Example 30, methyl (E)-3-(7-(cyclopentylamino)-5-(ethoxymethyl)-2-phenyl-1H-indol-3-yl)acrylate]
31 | ≤ 300 nM | CCOCCCc1cc(NC2CCOCC2)c2[nH]c(-c3ccccc3)cc2c1 [Example 51, 5-(3-ethoxypropyl)-2-phenyl-N-(tetrahydro-2H-pyran-4-yl)-1H-indol-7-amine]
32 | ≤ 300 nM | CCOCc1cc(NC2CCCC2)c2[nH]c(-c3ccccc3)c(C(=O)C(F)(F)F)c2c1 [Example 32, 1-(7-(cyclopentylamino)-5-(ethoxymethyl)-2-phenyl-1H-indol-3-yl)-2,2,2-trifluoroethan-1-one]
33 | 300 to 1000 nM | CCOCc1cc(NC2CCCC2)c2[nH]c(-c3ccccc3)c(-c3nccn3C(=O)OCC)c2c1 [Example 43, Ethyl 2-(7-(cyclopentylamino)-5-(ethoxymethyl)-2-phenyl-1H-indol-3-yl)-1H-imidazole-1-carboxylate]
34 | ≤ 300 nM | CCOCc1cc(NC2CCOCC2)c2[nH]c(-c3ccccc3)c(/C=N/OC)c2c1 [Example 27]
35 | ≤ 300 nM | CCOCc1cc(NCC2CCOCC2)c2[nH]c(-c3ccccc3)cc2c1 [Example 49, 5-(ethoxymethyl)-2-phenyl-N-((tetrahydro-2H-pyran-4-yl)methyl)-1H-indol-7-amine]
36 | ≤ 300 nM | CCOCc1cc(NC2CCCC2)c2[nH]c(-c3ccccc3)c(C#N)c2c1 [Example 23, 7-(cyclopentylamino)-5-(ethoxymethyl)-2-phenyl-1H-indole-3-carbonitrile]
37 | ≤ 300 nM | CCOCc1cc(NC2CCOCC2)c2[nH]c(-c3ccccc3)c(CCC(=O)OC)c2c1 [Example 39, Methyl 3-(5-(ethoxymethyl)-2-phenyl-7-((tetrahydro-2H-pyran-4-yl)amino)-1H-indol-3-yl)propanoate]
38 | ≤ 300 nM | COCc1cc(NCC2CCOCC2)c2[nH]c(-c3ccccc3)cc2c1 [Example 3, 5-(methoxymethyl)-2-phenyl-N-(tetrahydropyran-4-ylmethyl)-1H-indol-7-amine]
39 | > 1000 nM | CCOCc1cc(NC2CCOCC2)c2[nH]c(-c3ccccc3)c(-c3nccn3C(=O)OCC)c2c1 [Example 44, ethyl 2-(5-(ethoxymethyl)-2-phenyl-7-((tetrahydro-2H-pyran-4-yl)amino)-1H-indol-3-yl)-1H-imidazole-1-carboxylate]
